Patent publication US20080132505A1 (Glaxo Group Limited, priority 2004, published 2008)
pEC50: −log10 of the molar value. Where a name gives a salt, the structure may show the parent alone.

Molecular target: human cannabinoid CB2 receptor (Homo sapiens, UniProt P34972)
Experiment: Cannabinoid CB2 receptor agonist activity (yeast reporter assay, FDGlu fluorescence)
Assay type: cell-based
Conditions: for pEC50: EC50 value at the cloned human cannabinoid CB2 receptor; for Emax: read-out: efficacy value (Emax relative to HU210) at the cloned human cannabinoid CB2 receptor
Procedure: Determination of Cannabinoid CB2 Receptor Agonist Activity
The cannabinoid CB2 receptor agonist activity of the compounds of formula (I)-(IV) was determined in accordance with the following experimental method.
Yeast (Saccharomyces cerevisiae) cells expressing the human cannabinoid CB2 receptor were generated by integration of an expression cassette into the ura3 chromosomal locus of yeast strain MMY23. This cassette consisted of DNA sequence encoding the human CB2 receptor flanked by the yeast GPD promoter to the 5′ end of CB2 and a yeast transcriptional terminator sequence to the 3′ end of CB2. MMY23 expresses a yeast/mammalian chimeric G-protein alpha subunit in which the C-terminal 5 amino acids of Gpa1 are replaced with the C-terminal 5 amino acids of human Gαi3 (as described in Brown et al. (2000), Yeast 16:11-22). Cells were grown at 30° C. in liquid Synthetic Complete (SC) yeast media (Guthrie and Fink (1991), Methods in Enzymology, Vol. 194) lacking uracil, tryptophan, adenine and leucine to late logarithmic phase (approximately 6 OD600/ml).
Agonists were prepared as 10 mM stocks in DMSO. […] Agonist solutions in DMSO (1% final assay volume) were transferred into black, clear bottom, microtitre plates from NUNC (96- or 384-well). Cells were suspended at a density of 0.2 OD600/ml in SC media lacking histidine, uracil, tryptophan, adenine and leucine and supplemented with 10 mM 3-aminotriazole, 0.1M sodium phosphate pH 7.0, and […] fluorescein di-β-D-glucopyranoside (FDGlu). This mixture (50 ul per well for 384-well plates, 200 ul per well for 96-well plates) was added to agonist in the assay plates (Multidrop 384, Labsystems). After incubation at 30° C. for 24 hours, fluorescence resulting from degradation of FDGlu to fluorescein due to exoglucanase, an endogenous yeast enzyme produced during agonist-stimulated cell growth, was determined using a Spectrofluor microtitre plate reader (Tecan; excitation wavelength: 485 nm; emission wavelength: 535 nm). Fluorescence was plotted against compound concentration and iteratively curve fitted using a four parameter fit to generate a concentration effect value. Efficacy (Emax) was calculated from the equation
where Max[compound X] and Min[compound X] are the fitted maximum and minimum respectively from the concentration effect curve for compound X, and Max[HU210] and Min[HU210] are the fitted maximum and minimum respectively from the concentration effect curve for (6aR,10aR)-3-(1,1′-Dimethylheptyl)-6a,7,10,10a-tetrahydro-1-hydroxy-6,6-dimethyl-6H-dibenzo[b,d]pyran-9-methanol (HU210; available from Tocris). Equieffective molar ratio (EMR) values were calculated from the equation
Where EC50 [compound X] is the EC50 of compound X and EC50 [HU210] is the EC50 of HU210.

human cannabinoid CB2 receptor, sequence (P34972 whole entry): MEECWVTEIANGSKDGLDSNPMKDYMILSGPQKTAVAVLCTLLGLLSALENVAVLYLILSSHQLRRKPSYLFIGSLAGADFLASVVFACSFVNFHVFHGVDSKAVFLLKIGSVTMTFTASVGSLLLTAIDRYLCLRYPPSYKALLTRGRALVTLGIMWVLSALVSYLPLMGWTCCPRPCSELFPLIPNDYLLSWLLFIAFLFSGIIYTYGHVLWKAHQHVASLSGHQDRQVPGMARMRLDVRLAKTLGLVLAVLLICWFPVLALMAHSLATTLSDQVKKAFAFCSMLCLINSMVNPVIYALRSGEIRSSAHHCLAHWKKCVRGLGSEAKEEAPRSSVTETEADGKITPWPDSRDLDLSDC

Compound: O=C(NCC1CCCC1)c1cnc(Nc2cc(Cl)ccc2Cl)nc1C(F)(F)F [Example 42, 2-(2,5-Dichlorophenylamino)-4-trifluoromethylpyrimidine-5-carboxylic acid cyclopentylmethyl-amide]
- pEC50: 6.52 to 7.70
- Emax: > 50%

Compound: O=C(NCC1CCOCC1)c1cnc(Nc2ccc(F)c(Cl)c2)nc1C(F)(F)F [Example 215, 2-(4-Fluoro-3-chloro-phenylamino)-4-trifluoromethyl-pyrimidine-5-carboxylic acid (tetrahydro-pyran-4-ylmethyl)-amide]
- pEC50: 6.52 to 7.70
- Emax: > 50%

Compound: COc1cccc(Nc2ncc(C(=O)NC3CCC3)c(C(F)(F)F)n2)c1 [Example 53, 2-(3-Methoxyphenylamino)-4-trifluoromethylpyrimidine-5-carboxylic acid cyclobutylamide]
- pEC50: 6.52 to 7.70
- Emax: > 50%

Compound: O=C(NCC1CCOCC1)c1cnc(Nc2cccc(Br)c2)nc1C(F)(F)F [Example 32, 2-(3-Bromophenylamino)-4-trifluoromethylpyrimidine-5-carboxylic acid (tetrahydropyran-4-ylmethyl)amide]
- pEC50: 6.52 to 7.70
- Emax: > 50%

Compound: O=C(NCC1CCC1)c1cnc(Nc2ccc(F)cc2Cl)nc1C(F)(F)F [Example 224, 2-(2-Chloro-4-fluoro-phenylamino)-4-trifluoromethyl-pyrimidine-5-carboxylic acid cyclobutylmethyl-amide]
- pEC50: 6.52 to 7.70
- Emax: > 50%

Compound: N#Cc1ccc(Nc2ncc(C(=O)NCc3ccccc3)c(C(F)(F)F)n2)cc1 [Example 292, 2-(4-Cyano-phenylamino)-4-trifluoromethyl-pyrimidine-5-carboxylic acid benzylamide]
- pEC50: 6.52 to 7.70
- Emax: > 50%

Compound: Cc1cc(CNC(=O)c2cnc(Nc3cccc(Cl)c3)nc2C(F)(F)F)ccn1 [Example 293, 2-(3-Chloro-phenylamino)-4-trifluoromethyl-pyrimidine-5-carboxylic acid (2-methyl-pyridin-4-ylmethyl)-amide hydrochloride]
- pEC50: 6.52 to 7.70

Compound: O=C(NCC1CCCCC1)c1cnc(Nc2cc(F)cc(C(F)(F)F)c2)nc1C(F)(F)F [Example 90, 2-(3-Fluoro-5-trifluoromethyl-phenylamino)-4-trifluoromethyl-pyrimidine-5-carboxylic acid cyclohexylmethyl-amide]
- pEC50: 6.00 to 6.52
- Emax: > 50%

Compound: O=C(NCC1CCCCC1)c1cnc(Nc2ccc(Cl)cc2F)nc1C(F)(F)F [Example 226, 2-(2-Fluoro-4-chloro-phenylamino)-4-trifluoromethyl-pyrimidine-5-carboxylic acid cyclohexylmethyl-amide]
- pEC50: 6.52 to 7.70
- Emax: > 50%

Compound: O=C(NCC1CCC1)c1cnc(Nc2cc(Cl)ccc2F)nc1C(F)(F)F [Example 191, 2-(5-Chloro-2-fluorophenylamino)-4-trifluoromethyl-pyrimidine-5-carboxylic acid cyclobutylmethyl-amide]
- pEC50: 6.52 to 7.70
- Emax: > 50%

Compound: Cc1ccc(Nc2ncc(C(=O)NCC3CCOCC3)c(C(F)(F)F)n2)cc1Cl [Example 184, 2-(3-Chloro-4-methylphenylamino)-4-trifluoromethyl-pyrimidine-5-carboxylic acid (tetrahydropyran-4-ylmethyl)-amide]
- pEC50: 6.52 to 7.70
- Emax: > 50%

Compound: O=C(NCc1ccc(F)cc1)c1cnc(Nc2cccc(Cl)c2Cl)nc1C(F)(F)F [Example 364, 2-(2,3-Dichloro-phenylamino)-4-trifluoromethyl-pyrimidine-5-carboxylic acid 4-fluoro-benzylamide]
- pEC50: 6.52 to 7.70

Compound: O=C(NC1CCCC1)c1cnc(Nc2cccc(Br)c2)nc1C(F)(F)F [Example 207, 2-(3-Bromophenylamino)-4-trifluoromethyl-pyrimidine-5-carboxylic acid cyclopentylamide]
- pEC50: 6.52 to 7.70
- Emax: > 50%

Compound: O=C(NC1CCC1)c1cnc(Nc2ccc(Cl)cc2Cl)nc1C(F)(F)F [Example 49, 2-(2,4-Dichlorophenylamino)-4-trifluoromethylpyrimidine-5-carboxylic acid cyclobutylamide]
- pEC50: 6.52 to 7.70
- Emax: > 50%

Compound: O=C(NCC1CCCCC1)c1cnc(Nc2ccc(Cl)cc2Br)nc1C(F)(F)F [Example 238, 2-(2-Bromo-4-chloro-phenylamino)-4-trifluoromethyl-pyrimidine-5-carboxylic acid cyclohexylmethyl-amide]
- pEC50: 6.52 to 7.70
- Emax: > 50%

Compound: COc1cccc(Nc2ncc(C(=O)NC3CCCC3)c(C(F)(F)F)n2)c1 [Example 76, 3-Methoxyphenylamino-4-trifluoromethyl-pyrimidine-5-carboxylic acid cyclopentylamide]
- pEC50: 6.00 to 6.52
- Emax: > 50%

Compound: O=C(NCc1ccncc1)c1cnc(Nc2cccc(F)c2)nc1C(F)(F)F [Example 285, 2-(3-Fluorophenylamino)-4-trifluoromethylpyrimidine-5-carboxylic acid (pyridin-4-ylmethyl)amide]
- pEC50: 6.52 to 7.70

Compound: Cc1cc(CNC(=O)c2cnc(Nc3cccc(Cl)c3)nc2C(F)(F)F)ccn1 [Example 303, 2-(3-Chloro-phenylamino)-4-trifluoromethyl-pyrimidine-5-carboxylic acid (2-methyl-pyridin-4-ylmethyl)-amide]
- pEC50: 6.00 to 6.52

Compound: O=C(NCc1ccc(Cl)cc1)c1cnc(Nc2cccc(Cl)c2)nc1C(F)(F)F [Example 298, 2-(3-Chloro-phenylamino)-4-trifluoromethyl-pyrimidine-5-carboxylic acid 4-chloro-benzylamide]
- pEC50: 6.00 to 6.52
- Emax: > 50%

Compound: O=C(NCC1CCCCC1)c1cnc(Nc2ccc(F)cc2Cl)nc1C(F)(F)F [Example 222, 2-(2-Chloro-4-fluoro-phenylamino)-4-trifluoromethyl-pyrimidine-5-carboxylic acid cyclohexylmethyl-amide]
- pEC50: 6.52 to 7.70
- Emax: > 50%

Compound: O=C(NCC1CCOCC1)c1cnc(Nc2cc(Cl)ccc2Cl)nc1C(F)(F)F [Example 35, 2-(2,5-Dichlorophenylamino)-4-trifluoromethylpyrimidine-5-carboxylic acid (tetrahydropyran-4-ylmethyl)-amide]
- pEC50: 6.52 to 7.70
- Emax: > 50%

Compound: O=C(NCc1ccnc(F)c1)c1cnc(Nc2cc(Cl)cc(Cl)c2)nc1C(F)(F)F [Example 356, 2-(3,5-Dichloro-phenylamino)-4-trifluoromethyl-pyrimidine-5-carboxylic acid (2-fluoro-pyridin-4-ylmethyl)-amide]
- pEC50: 6.52 to 7.70

Compound: O=C(NCc1ccccc1)c1cnc(Nc2cccc(Cl)c2)nc1C(F)(F)F [Example 266, 2-(3-Chlorophenylamino)-4-trifluoromethylpyrimidine-5-carboxylic acid benzyl-amide]
- pEC50: 6.52 to 7.70
- Emax: > 50%

Compound: O=C(NCC1(O)CCCCC1)c1cnc(Nc2cccc(Cl)c2)nc1C(F)(F)F [Example 164, 2-(3-Chlorophenylamino)-4-trifluoromethyl-pyrimidine-5-carboxylic acid (1-hydroxycyclohexylmethyl)-amide]
- pEC50: 6.52 to 7.70
- Emax: > 50%

Compound: O=C(NCc1ccncc1)c1cnc(Nc2cc(Cl)ccc2Cl)nc1C(F)(F)F [Example 284, 2-(2,5-Dichlorophenylamino)-4-trifluoromethylpyrimidine-5-carboxylic acid (pyridin-4-ylmethyl)amide]
- pEC50: 6.52 to 7.70

Compound: CN(CC1CCC1)C(=O)c1cnc(Nc2cccc(Cl)c2)nc1C(F)(F)F [Example 188, 2-(3-Chlorophenylamino)-4-trifluoromethyl-pyrimidine-5-carboxylic acid cyclobutylmethyl-methyl-amide]
- pEC50: 6.52 to 7.70
- Emax: > 50%

Compound: O=C(NCC1CC1)c1cnc(Nc2ccc(Cl)cc2Cl)nc1C(F)(F)F [Example 241, 2-(2,4-Dichlorophenylamino)-4-trifluoromethylpyrimidine-5-carboxylic acid cyclopropylmethyl-amide]
- pEC50: 6.52 to 7.70
- Emax: > 50%

Compound: O=C(NCc1ccncc1)c1cnc(Nc2cccc(Cl)c2)nc1C(F)(F)F [Example 267, 2-(3-Chlorophenylamino)-4-trifluoromethylpyrimidine-5-carboxylic acid (pyridin-4-ylmethyl)amide]
- pEC50: 6.52 to 7.70

Compound: Cc1cccc(Nc2ncc(C(=O)NCC3CCCCC3)c(C(F)(F)F)n2)c1Cl [Example 92, 2-(2-Chloro-3-methyl-phenylamino)-4-trifluoromethyl-pyrimidine-5-carboxylic acid cyclohexylmethyl-amide]
- pEC50: 6.00 to 6.52
- Emax: > 50%
